Laboratory results taken from ChEMBL document CHEMBL2331210, “New 2-benzylsulfanyl-nicotinic acid based 1,3,4-oxadiazoles: their synthesis and biological evaluation” (2013).
≈ marks a conversion by molar mass, not a printed value.

Tests used:
Assay type in all cases: functional
Aspergillus clavatus = assay: Antimicrobial activity against Aspergillus clavatus MTCC 1323 assessed as growth inhibition measured after overnight incubation by broth dilution method
[1] = test system: Mycobacterium tuberculosis; assay: Antitubercular activity against Mycobacterium tuberculosis H37Rv assessed as growth inhibition after 12 to 28 days by L.J. agar MIC method; details: for MIC: Mycobacterium tuberculosis, H37Rv
Pseudomonas aeruginosa = assay: Antimicrobial activity against Pseudomonas aeruginosa MTCC 2488 assessed as growth inhibition measured after overnight incubation by broth dilution method
Candida albicans = assay: Antimicrobial activity against Candida albicans MTCC 227 assessed as growth inhibition measured after overnight incubation by broth dilution method
Aspergillus niger = assay: Antimicrobial activity against Aspergillus niger MTCC 282 assessed as growth inhibition measured after overnight incubation by broth dilution method
Staphylococcus aureus = assay: Antimicrobial activity against Staphylococcus aureus MTCC 96 assessed as growth inhibition measured after overnight incubation by broth dilution method
Escherichia coli = assay: Antimicrobial activity against Escherichia coli MTCC 443 assessed as growth inhibition measured after overnight incubation by broth dilution method
Streptococcus pyogenes = assay: Antimicrobial activity against Streptococcus pyogenes MTCC 442 assessed as growth inhibition measured after overnight incubation by broth dilution method

Cc1cnc(NC(=O)CCl)s1
MIC (Aspergillus clavatus): 500 mg/L (≈ 2620 µM)
growth inhibition (GI) [1]: 97%
MIC [1]: 250 mg/L (≈ 1310 µM)
MIC (Pseudomonas aeruginosa): 250 mg/L (≈ 1310 µM)
MIC (Candida albicans): 200 mg/L (≈ 1050 µM)
MIC (Aspergillus niger): 500 mg/L (≈ 2620 µM)
MIC (Staphylococcus aureus): 500 mg/L (≈ 2620 µM)
MIC (Escherichia coli): 250 mg/L (≈ 1310 µM)
MIC (Streptococcus pyogenes): 250 mg/L (≈ 1310 µM)

NNC(=O)c1cccnc1SCc1ccccc1
MIC (Aspergillus clavatus): 250 mg/L (≈ 964 µM)
growth inhibition (GI) [1]: 99%
MIC [1]: 250 mg/L (≈ 964 µM)
MIC (Pseudomonas aeruginosa): 200 mg/L (≈ 771 µM)
MIC (Candida albicans): 500 mg/L (≈ 1930 µM)
MIC (Aspergillus niger): 500 mg/L (≈ 1930 µM)
MIC (Staphylococcus aureus): 125 mg/L (≈ 482 µM)
MIC (Escherichia coli): 125 mg/L (≈ 482 µM)
MIC (Streptococcus pyogenes): 125 mg/L (≈ 482 µM)

O=C(CSc1nnc(-c2cccnc2SCc2ccccc2)o1)Nn1cnnc1
MIC (Aspergillus clavatus): 500 mg/L (≈ 1180 µM)
growth inhibition (GI) [1]: 99%
MIC [1]: 25 mg/L (≈ 58.8 µM)
MIC (Pseudomonas aeruginosa): 125 mg/L (≈ 294 µM)
MIC (Candida albicans): 100 mg/L (≈ 235 µM)
MIC (Aspergillus niger): 1000 mg/L (≈ 2350 µM)
MIC (Staphylococcus aureus): 250 mg/L (≈ 588 µM)
MIC (Escherichia coli): 100 mg/L (≈ 235 µM)
MIC (Streptococcus pyogenes): 125 mg/L (≈ 294 µM)

CCOC(=O)CSc1nnc(-c2cccnc2SCc2ccccc2)o1
MIC (Aspergillus clavatus): 1000 mg/L (≈ 2580 µM)
growth inhibition (GI) [1]: 98%
MIC [1]: 100 mg/L (≈ 258 µM)
MIC (Pseudomonas aeruginosa): 200 mg/L (≈ 516 µM)
MIC (Candida albicans): 1000 mg/L (≈ 2580 µM)
MIC (Aspergillus niger): 1000 mg/L (≈ 2580 µM)
MIC (Staphylococcus aureus): 500 mg/L (≈ 1290 µM)
MIC (Escherichia coli): 500 mg/L (≈ 1290 µM)
MIC (Streptococcus pyogenes): 125 mg/L (≈ 323 µM)

COc1cc(OC)nc(NC(=O)CCl)n1
MIC (Aspergillus clavatus): > 1000 mg/L
growth inhibition (GI) [1]: 98%
MIC [1]: 250 mg/L (≈ 1080 µM)
MIC (Pseudomonas aeruginosa): 125 mg/L (≈ 540 µM)
MIC (Candida albicans): 500 mg/L (≈ 2160 µM)
MIC (Aspergillus niger): 1000 mg/L (≈ 4320 µM)
MIC (Staphylococcus aureus): 500 mg/L (≈ 2160 µM)
MIC (Escherichia coli): 100 mg/L (≈ 432 µM)
MIC (Streptococcus pyogenes): 125 mg/L (≈ 540 µM)

CO[C@H]1/C=C/O[C@@]2(C)Oc3c(C)c(O)c4c(O)c(c(/C=N/N5CCN(C)CC5)c(O)c4c3C2=O)NC(=O)/C(C)=C\C=C\[C@H](C)[C@H](O)[C@@H](C)[C@@H](O)[C@@H](C)[C@H](OC(C)=O)[C@@H]1C [RIFAMPIN]
growth inhibition (GI) [1]: 99%
MIC [1]: 40 mg/L (≈ 48.6 µM)

COC1=CC(=O)C[C@@H](C)[C@]12Oc1c(Cl)c(OC)cc(OC)c1C2=O [GRISEOFULVIN]
MIC (Aspergillus clavatus): 100 mg/L (≈ 283 µM)
MIC (Candida albicans): 500 mg/L (≈ 1420 µM)
MIC (Aspergillus niger): 100 mg/L (≈ 283 µM)

S=c1[nH]nc(-c2cccnc2SCc2ccccc2)o1
MIC (Aspergillus clavatus): 200 mg/L (≈ 664 µM)
growth inhibition (GI) [1]: 99%
MIC [1]: 100 mg/L (≈ 332 µM)
MIC (Pseudomonas aeruginosa): 125 mg/L (≈ 415 µM)
MIC (Candida albicans): 1000 mg/L (≈ 3320 µM)
MIC (Aspergillus niger): 1000 mg/L (≈ 3320 µM)
MIC (Staphylococcus aureus): 100 mg/L (≈ 332 µM)
MIC (Escherichia coli): 100 mg/L (≈ 332 µM)
MIC (Streptococcus pyogenes): 100 mg/L (≈ 332 µM)
